In US20110045101A1, “FUNGICIDAL SUBSTITUTED AZOLES” (E.I. Du Pont De Nemours and Company, priority 2009, published 2011):
Marks after values point to notes of the source that are not given here.

Assays:
Assay type in all cases: in vivo
Conditions in all cases: 100 = 100% disease control
[1] = test system: Botrytis cinerea; assay: Test C: tomato Botrytis on tomato seedlings, sprayed the day before inoculation, visual disease rating
How it was run: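 Tomato seedlings were sprayed until run-off with test suspensions in acetone/water (50/50) carrying 250 ppm polyhydric alcohol ester surfactant. Standard dose was 200 ppm, with 40 ppm for marked entries.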

[2] = test system: Alternaria solani; assay: Test D: tomato early blight, sprayed the day before inoculation, visual disease rating
How it was run: (§1)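 200 ppm run-off spray (500 g/ha equivalent); * = 40 ppm. Vehicle: acetone/water 50/50, 250 ppm Trem® 014.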

[3] = test system: Septoria nodorum; assay: Test F: wheat glume blotch on wheat seedlings, sprayed the day before inoculation, visual disease rating
How it was run: as §1

[4] = test system: Septoria tritici; assay: Test G: wheat leaf blotch on wheat seedlings, sprayed the day before inoculation, visual disease rating
How it was run: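 Disease was rated visually after Septoria tritici inoculation, 48 h saturated incubation at 24°C and 19 days in a 20°C growth chamber. Inoculation followed one day after run-off spraying of seedlings with compound at 200 ppm (≈500 g/ha) or, where marked, 40 ppm, formulated in acetone/water with surfactant.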

[5] = test system: Puccinia recondita f. sp. tritici; assay: Test H: wheat leaf rust, test suspension sprayed after inoculation of wheat seedlings, visual disease rating
Excerpt: General protocol for preparing test suspensions for Tests A-J: The test compounds were first dissolved in acetone in an amount equal to 3% of the final volume and then suspended at the desired concentration (in ppm) in acetone and purified water (50/50 mix) containing 250 ppm of the surfactant Trem® 014 (polyhydric alcohol esters). The resulting test suspensions were then used in tests A-J. Spraying a 200 ppm test suspension to the point of run-off on the test plants was the equivalent of a rate of 500 g/ha. […] Wheat seedlings were inoculated with a spore suspension of Puccinia recondita f. sp. tritici (the causal agent of wheat leaf rust) and incubated in a saturated atmosphere at 20° C. for 24 h, and then moved to a growth chamber at 20° C. for 2 days. […] A dash (-) indicates no test results. All results are for 200 ppm except where followed by “*”, which indicates 40 ppm.

[6] = test system: Puccinia recondita f. sp. tritici; assay: Test I: wheat leaf rust on wheat seedlings, sprayed the day before inoculation, visual disease rating
How it was run: as §1

[7] = test system: Erysiphe graminis f. sp. tritici; assay: Test J: wheat powdery mildew on wheat seedlings, sprayed the day before inoculation, visual disease rating
How it was run: as §1

[8] = 200 ppm, 0 = no control relative to controls
[9] = 40 ppm (marked *), 0 = no control

Row | Compound | Test C disease control rating [1, 8] [%] | Test D disease control rating [2, 8] [%] | Test F disease control rating [3, 8] [%] | Test G disease control rating [4, 8] [%] | Test H disease control rating [5, 8] [%] | Test I disease control rating [6, 8] [%] | Test J disease control rating [7, 8] [%] | also measured
1 | Fc1cc(-n2c(Cl)nc(Cl)c2-c2c(F)cncc2F)ccc1Cl [compound 593] | 100 | 100 | 99 | 96 | 99 | 100 | 100 | 
2 | COc1ccc(F)c(-c2c(Cl)nc(Br)n2-c2cccc(C)c2)c1F [compound 316] | 99 | 99 | 95 | 93 | 6 | 99 | 100 | 
3 | N#Cc1ccc(F)c(-c2c(Cl)ncn2-c2ccc(F)cc2)c1F [compound 656] | 100 | 100 | 20 | 99 | 9 | 100 | 100 | 
4 | COc1cc(F)c(-n2c(Cl)nc(C)c2-c2ccc(C)cc2)c(F)c1 [compound 564] |  |  |  |  |  |  |  | Test C disease control rating ([1]; 40 ppm (marked *)): 99* %; Test D disease control rating ([2]; 40 ppm (marked *)): 100* %; Test F disease control rating ([3]; 40 ppm (marked *)): 64* %; Test G disease control rating ([4]; 40 ppm (marked *)): 99* %; Test H disease control rating ([5]; 40 ppm (marked *)): 66* %; Test I disease control rating ([6]; 40 ppm (marked *)): 100* %; Test J disease control rating ([7]; 40 ppm (marked *)): 100* %
5 | COc1cc(Cl)c(-c2c(Cl)nc(Br)n2-c2ccc(Cl)c(F)c2)c(Cl)c1 [compound 574] | 100 | 0 | 60 | 100 | 0 | 98 | 97 | 
6 | COc1cc(F)c(-c2c(Cl)nc(C)n2-c2ccc(SC#N)cc2)c(F)c1 [Compound 741, 4-[4-chloro-5-(2,6-difluoro-4-methoxyphenyl)-2-methyl-1H-1-yl]phenyl thiocyanate] | 100 | 99 | 92 |  | 0 | 99 | 72 | 
7 | Cc1nn(C)c(Cc2ccc(F)cc2F)c1-c1ccc(F)cc1Cl [Compound 313, 4-(2-chloro-4-fluorophenyl)-5-[(2,4-difluorophenyl)methyl]-1,3-dimethyl-1H-pyrazole] |  |  |  |  |  |  |  | pest or weed control at 200 ppm ([1]; Botrytis cinerea, 120 h, 200 ppm, 0 = no control relative to controls): 99%; pest or weed control at 200 ppm ([2]; Alternaria solani, 168 h, 200 ppm, 0 = no control relative to controls): 100%; pest or weed control at 200 ppm ([3]; Parastagonospora nodorum, 264 h, 200 ppm, 0 = no control relative to controls): 0%; pest or weed control at 200 ppm ([5]; Puccinia recondita, 96 h, 200 ppm, 0 = no control relative to controls): 95%; pest or weed control at 200 ppm ([6]; Puccinia recondita, 168 h, 200 ppm, 0 = no control relative to controls): 100%; pest or weed control at 200 ppm ([7]; Blumeria graminis, 168 h, 200 ppm, 0 = no control relative to controls): 99%
8 | Cc1nn(C)c(Cc2cccc(F)c2)c1-c1ccc(F)cc1Cl [compound 311] | 98 | 9 | 0 |  | 100 | 99 | 95 | 
9 | Fc1cc(F)c(-c2c(Cl)nc(Cl)n2-c2cccc(OC(F)F)c2)c(F)c1 [compound 597] | 100 | 100 | 97 | 98 | 99 |  | 100 | 
10 | Cc1nc(C)n(-c2ccc(Cl)cc2)c1-c1c(F)cc(F)cc1F [compound 45] | 100 | 98 | 100 |  | 99 | 100 | 100 | 
11 | Cc1nn(C)c(Cc2ccc(F)cc2)c1-c1ccc(F)cc1Cl [compound 312] | 99 | 82 | 0 |  | 9 | 99 | 92 | 
12 | Cc1nc(C)n(-c2ccc(Cl)cc2)c1-c1c(F)ccc(F)c1Cl [compound 388] | 99 | 100 | 60 | 99 |  | 100 | 100 | 
13 | N#Cc1cc(F)c(-c2c(Cl)ncn2-c2ccc(Cl)cc2)c(F)c1 [compound 193] |  |  |  |  |  |  |  | Test C disease control rating ([1]; 200 ppm, 0 = no control): 99%; Test D disease control rating ([2]; 200 ppm, 0 = no control): 100%; Test F disease control rating ([3]; 200 ppm, 0 = no control): 0%; Test G disease control rating ([4]; 200 ppm, 0 = no control): 98%; Test I disease control rating ([6]; 200 ppm, 0 = no control): 97%; Test J disease control rating ([7]; 200 ppm, 0 = no control): 98%
14 | COc1ccc(-c2c(Cl)nc(C)n2-c2ccc(Cl)cc2)c(F)c1 [compound 113] | 98 | 99 | 97 | 95 |  | 97 | 97 | 
15 | Cc1nc(Cl)c(-c2c(F)ccc(F)c2Cl)n1-c1ccc(Cl)cc1 [compound 80] | 90 | 100 | 100 | 98 |  | 100 | 100 | 
16 | COc1ccc(F)c(-c2c(Cl)ncn2-c2ccc(Cl)cc2)c1F [compound 112] | 99 | 100 | 89 | 98 |  | 99 | 99 | 
17 | Cc1ccc(-n2cnc(Cl)c2-c2c(F)ccc(F)c2Cl)cc1 [compound 177] |  |  |  |  |  |  |  | Test C disease control rating ([1]; 200 ppm, 0 = no control): 88%; Test D disease control rating ([2]; 200 ppm, 0 = no control): 0%; Test F disease control rating ([3]; 200 ppm, 0 = no control): 0%; Test G disease control rating ([4]; 200 ppm, 0 = no control): 79%; Test I disease control rating ([6]; 200 ppm, 0 = no control): 99%; Test J disease control rating ([7]; 200 ppm, 0 = no control): 99%
18 | COc1cc(F)c(-c2c(Cl)nc(Br)n2-c2ccc(Cl)cc2)c(Cl)c1 [compound 171] |  |  |  |  |  |  |  | Test C disease control rating ([1]; 200 ppm, 0 = no control): 99%; Test D disease control rating ([2]; 200 ppm, 0 = no control): 100%; Test F disease control rating ([3]; 200 ppm, 0 = no control): 100%; Test G disease control rating ([4]; 200 ppm, 0 = no control): 98%; Test I disease control rating ([6]; 200 ppm, 0 = no control): 98%; Test J disease control rating ([7]; 200 ppm, 0 = no control): 99%
19 | COc1cc(F)c(-n2c(Cl)nc(Cl)c2-c2ccc(Cl)cc2)c(F)c1 [compound 297] |  |  |  |  |  |  |  | Test C disease control rating [1, 9]: 99* %; Test D disease control rating [2, 9]: 100* %; Test F disease control rating [3, 9]: 99* %; Test G disease control rating [4, 9]: 94* %; Test I disease control rating [6, 9]: 99* %; Test J disease control rating [7, 9]: 100* %
